# Measured values published in patent US20200054589A1, “COMBINATION OF A PPAR AGONIST WITH A FXR AGONIST” (Genfit, priority 2017, published 2020).
# Key:
# [1] = tested on: TGFβ1-induced human primary hepatic stellate cells (hHSC), α-SMA; assay: α-SMA ELISA in TGFβ1-activated hHSC (in vitro model of hepatic fibrogenesis), synergy by Excess Over Bliss; format: cell-based; details: TGFβ1 1 ng/ml, 48 h
# Experimental: The human primary hepatic stellate cells (hHSC) (Innoprot) were cultured in STeCM medium (ScienCell cat #5301) supplemented with 2% fetal bovine serum (FBS, ScienCell cat #0010), 1% penicillin/streptomycin (ScienCell cat #0503) and stellate cell growth supplement (SteCGS; ScienCell cat #5352). Cell-culture flasks were coated with Poly-L Lysine (Sigma cat # P4707) for a better adherence.
# The FXR agonist INT-767 (CAS #1000403-03-1, Cat # HY-12434, batch #19249) was obtained commercially from Haoyuan Chemexpress. For these experiments, a checkerboard matrix was generated. […]
# The level of α-SMA was measured using a Sandwich ELISA. […]
# The values obtained in the αSMA ELISA assays were first transformed into percentage inhibitions over TGF-β1 control. Then, using these percentage inhibitions, EOB (Excess Over Bliss) was determined to define the synergistic effects of drug combinations. Expected Bliss additivism score (E) was firstly determined by the equation: […]
# For the combinations INT-767/Elafibranor, an additional total Bliss score was calculated by summation of all EOB. […]
# The significance of the observed differences between INT-767/Elafibranor over the highest single agent was determined by a student's t-test. *: p<0.05; **: p<0.01; ***: p<0.001.
# [2] = tested on: genes involved in tissue remodeling and inflammation (αSMA (ACTA2), TIMP1, TGFB1, CCR5) in CDAA/chol fed rat livers; assay: Hepatic gene expression analysis (quantitative PCR) in CDAA+1% cholesterol model; format: in vivo, Wistar rats; details: liver; Percentage over the untreated CDAA + 1% cholesterol rats; 12 weeks; GFT505 3 mg/kg/d, OCA 10 mg/kg/d, or GFT505 + OCA
# Experimental: (§1) The preventive effects of Elafibranor (GFT505) alone, OCA alone and the combination of both were assessed in a fibrosing NASH-model of rats fed a CDAA+1% cholesterol diet. 150-175 g male Wistar rats were fed a control (CSAA) diet, CDAA+1% cholesterol diet, or CDAA+1% cholesterol diet supplemented with Elafibranor 1, 3 and 10 mg/kg/day, OCA 10 and 30 mg/kg/day or combined drugs (Elafibranor 1, 3 and 10 mg/kg/day combined to OCA 10 mg/kg/day) for 12 weeks.
# (§2) The body weight and the food intake were monitored twice per week. On the last day of treatment, rats were sacrificed after a 6 h fasting period. The liver was rapidly excised for biochemical and histological studies.
# Total RNA was isolated from rat livers using RNeasy Mini Kit (Qiagen) following manufacturer's instructions. Total RNA were reverse transcribed into cDNA using M-MLV RT (Moloney Murine Leukemia Virus Reverse Transcriptase) (Invitrogen cat #28025) in 1× RT buffer (Invitrogen), 0.5 mM DTT (Invitrogen), 0.18 mM dNTPs (Promega), 200 ng pdN6 (Amersham) and 30 U of RNase inhibitor (Promega).
# Quantitative PCR was then carried out using the CFX96 Touch™ Real-Time PCR Detection System (Biorad). Briefly, the PCR reactions were performed in 96-WP format in 25 μl of total volume containing 1 μL of reverse transcription reaction, 0.5 μL of reverse and forward primers (10 pmol each), and 12.5 μl of 2× iQ SYBR Green Supermix (BioRad), using the following primer sequences:
# Expression levels were normalized using the expression of Rplp0 gene as a reference in samples. For each gene, the standard curves were drawn by selecting the best points (at least three points) in order to have PCR reaction efficiency close to 100% and a correlation coefficient close to 1. Expression levels were determined using the standard curve equation for both the housekeeping gene and the target gene (taking into account the specific PCR efficiency of each target gene).
# [3] = tested on: fibrosing NASH-model of rats fed a CDAA+1% cholesterol diet; assay: Liver histology (picrosirius fibrosis surface, NASH lesions) in chronic CDAA+1% cholesterol model (12 weeks); format: in vivo, Wistar rats
# Experimental: as §1, §2
# The liver slices were first fixed for 12 hours in formalin 4% solution. Then, the liver pieces were washed 30 minutes in PBS, and dehydrated in ethanol solutions (successive baths at 70, 80, 95 and 100% ethanol). The liver pieces were incubated in three different baths of Xylene (Sigma-Aldrich cat #534056), followed by two baths in liquid paraffin (56° C.). Liver pieces were then put into racks that were gently filled with Histowax® to completely cover the tissue. The paraffin blocks containing the tissue pieces were removed from the racks and stored at room temperature. The liver blocks were cut into […] slices.
# Liver sections were deparaffinized, rehydrated and incubated for 15 minutes in a solution of Fast Green FCF 0.1% (Sigma-Aldrich, cat # F7258) before rinsing in a bath of 0.5% acetic acid (Panreac, cat #131008.1611). […]
# A technician blinded to the source of each liver specimen performed histological examinations. […] Briefly, steatosis, lobular inflammation and hepatocytes ballooning were scored. […]
# Using Quant Center software (3D Histech, including Pattern Quant and Histo Quant modules), collagen-stained areas were quantified. […] The fibrosis area was then expressed as the percentage of the collagen surface to the whole tissue per animal.
# [4] = tested on: fibrosing NASH-model of rats fed a CDAA+1% cholesterol diet; assay: Hepatic collagen content (hydroxyproline, QuickZyme) in CDAA+1% cholesterol model; format: in vivo, Wistar rats; details: Percentage over the untreated CDAA + 1% cholesterol rats; 12 weeks; GFT505 3 mg/kg/d, OCA 10 mg/kg/d, or GFT505 + OCA; mean ± SD
# Experimental: as §1, §2
# The hepatic collagen content was determined using the appropriate QuickZyme kit (Total collagen assay, cat # QZB-totcol2). The assay is based on the detection of hydroxyproline, which is a non-proteinogenic amino acid mainly found in the triple helix of collagen. Thus, hydroxyproline in tissue hydrolysates can be used as a direct measure of the amount of collagen present in the tissue (without discrimination between procollagen, mature collagen and collagen degradation products). Complete hydrolysis of tissue samples in 6M HCl at 95° C. is required before dosing the hydroxyproline. The assay results in the generation of a chromogen with a maximum absorbance at 570 nm. Results are expressed as mg of collagen/g of liver.
Compound,"antifibrotic activity (α-SMA inhibition), in words ([1]; 1.9 μM of INT-767 alone)","inhibition at 30 µM ([1]; Homo sapiens, highest dose of INT-767 tested, 30 μM, read-out: α-SMA production inhibition over TGFβ1 control)",CCR5 mRNA level (marker of inflammation) [2],TGFβ1 mRNA level [2],TIMP1 mRNA level [2],α-SMA mRNA level [2],"effects on ballooning and lobular inflammation, in words ([3]; CDAA/chol diet-induced NASH model)","effect on fibrosis development, in words (FIGS. 1-2) ([3]; CDAA/chol fed rats, 12 weeks, fibrosis surface and hepatic collagen)","Fibrosis surface ([3]; Percentage over the untreated CDAA + 1% cholesterol rats, 12 weeks in diet, GFT505 3 mg/kg/d, OCA 10 mg/kg/d, or GFT505 + OCA, mean ± SD)",Hepatic collagen content [4]
CC[C@H]1[C@@H](O)[C@@H]2[C@H](CC[C@]3(C)[C@@H]([C@H](C)CCOS(=O)(=O)[O-])CC[C@@H]23)[C@@]2(C)CC[C@@H](O)C[C@@H]12.[Na+] [INT-767],does not show any antifibrotic activity,13%,–,–,–,–,–,–,–,–
"CC[C@H]1[C@@H](O)[C@@H]2[C@H](CC[C@]3(C)[C@@H]([C@H](C)CCC(=O)O)CC[C@@H]23)[C@@]2(C)CC[C@@H](O)C[C@@H]12 [OCA, 6α-ethyl chenodeoxycholic acid]",–,–,81% ± 28%,110% ± 23%,110% ± 43%,109% ± 68%,rather modest,does not attenuate fibrosis in a significant manner,74% ± 45%,67% ± 23%
